Measurements: patent US20040152715A1, “Cycloalkylene amide compounds as NR2B receptor antagonists” (priority 2002, published 2004)

Columns and labels:
NR2B receptor = biological target: T1, NR2B receptor (Rattus norvegicus, UniProt P35439+Q00960); test: NR2B Binding Assay; details: statement in words in Background Art on prior-art compounds; test not named
T1 construct: Membranes were prepared by homogenization of forebrain of male CD rats; from tissue; host or cells: rat forebrain P2 membranes
T1 sequence (Q00960 27-1482, other chains not shown): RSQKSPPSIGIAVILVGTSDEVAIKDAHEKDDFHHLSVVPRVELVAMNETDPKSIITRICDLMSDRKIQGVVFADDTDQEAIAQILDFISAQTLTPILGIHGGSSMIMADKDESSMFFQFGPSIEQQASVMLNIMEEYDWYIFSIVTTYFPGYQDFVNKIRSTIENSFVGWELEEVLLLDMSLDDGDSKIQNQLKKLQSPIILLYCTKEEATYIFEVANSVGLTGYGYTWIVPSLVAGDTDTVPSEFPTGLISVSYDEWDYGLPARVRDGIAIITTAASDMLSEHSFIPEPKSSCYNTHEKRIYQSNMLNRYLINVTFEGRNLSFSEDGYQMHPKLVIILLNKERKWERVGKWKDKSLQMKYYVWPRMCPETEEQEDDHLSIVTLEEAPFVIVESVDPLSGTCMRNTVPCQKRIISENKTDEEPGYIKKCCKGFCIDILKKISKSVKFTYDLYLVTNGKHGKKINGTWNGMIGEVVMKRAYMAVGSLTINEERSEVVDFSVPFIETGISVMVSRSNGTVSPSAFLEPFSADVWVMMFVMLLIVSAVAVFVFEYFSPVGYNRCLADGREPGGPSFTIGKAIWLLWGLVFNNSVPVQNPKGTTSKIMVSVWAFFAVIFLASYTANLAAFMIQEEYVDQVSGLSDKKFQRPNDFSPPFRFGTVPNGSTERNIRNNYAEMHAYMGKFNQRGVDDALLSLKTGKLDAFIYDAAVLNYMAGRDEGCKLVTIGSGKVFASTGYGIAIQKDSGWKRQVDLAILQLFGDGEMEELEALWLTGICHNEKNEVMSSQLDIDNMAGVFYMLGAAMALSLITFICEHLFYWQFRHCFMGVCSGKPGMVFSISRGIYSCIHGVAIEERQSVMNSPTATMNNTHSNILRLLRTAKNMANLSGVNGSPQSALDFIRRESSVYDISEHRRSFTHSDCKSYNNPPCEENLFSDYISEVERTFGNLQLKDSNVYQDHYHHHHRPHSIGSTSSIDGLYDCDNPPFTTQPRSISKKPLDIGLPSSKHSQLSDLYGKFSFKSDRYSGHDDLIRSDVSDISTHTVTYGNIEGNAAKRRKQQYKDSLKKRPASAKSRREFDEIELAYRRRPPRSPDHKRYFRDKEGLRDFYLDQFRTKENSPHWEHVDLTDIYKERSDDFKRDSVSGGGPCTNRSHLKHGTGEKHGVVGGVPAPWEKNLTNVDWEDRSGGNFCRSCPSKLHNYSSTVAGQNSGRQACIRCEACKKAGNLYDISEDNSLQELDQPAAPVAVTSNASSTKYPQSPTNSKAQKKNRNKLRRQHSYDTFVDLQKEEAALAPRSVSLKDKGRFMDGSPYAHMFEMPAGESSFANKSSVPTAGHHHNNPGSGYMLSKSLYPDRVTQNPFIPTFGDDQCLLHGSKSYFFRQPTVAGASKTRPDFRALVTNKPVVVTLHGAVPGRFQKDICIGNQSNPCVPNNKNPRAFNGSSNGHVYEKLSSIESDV
Experimental: The activity of the cycloalkylene amide compounds of the present invention, as NR2B antagonists, is determined by their ability to inhibit the binding of NR2B subunit at its receptor sites employing radioactive ligands.
The NR2B antagonist activity of the cycloalkylene amide compounds is evaluated by using the standard assay procedure described in, for example, J. Pharmacol., 331, pp117-126, 1997. This method essentially involves determining the concentration of the individual compound required to reduce the amount of radiolabelled NR2B ligands by 50% at their receptor sites, thereby affording characteristic IC50 values for each compound tested. More specifically, the assay is carried out as follows.
Membranes were prepared by homogenization of forebrain of male CD rats weighing between 170˜190 g by using glass-Teflon homogenizer in 0.32 M sucrose at 4° C. The crude nuclear pellet was removed by centrifugation at 1000×g for 10 min, and the supernatant centrifuged at 17000×g for 25 min. […]
For the saturation assay, receptor saturation was determined by incubating [^3H]-CP-98,113 and 50 μg protein of P2 membrane for 60 minutes at room temperature in a final 100 μl of incubation buffer (50 mM Tris HCl, pH7.4). Total and non-specific bindings (in the presence of 10 μM of unlabeled CP-98,113) were determined in a range of [^3H]-CP-98113 concentrations (0.625 nM to 60 nM). […]
For the competition assay, test compounds were incubated in duplicate with 5 nM [^3H]-CP-98,113 and 50 μg protein of P2 membrane for 60 minutes at room temperature in a final 100 μl of 50 mM Tris HCl buffer (pH7.4). Nonspecific binding was determined by 10 μM of unlabeled CP-98,113 (25 μl). […]
All incubations were terminated by rapid vacuum filtration over 0.2% polyethyleneimine soaked Whatman GF/B glass fibre filter paper using a SKATRON cell harvester followed by three washes with ice-cold filtration buffer (5 mM Tris HCl, pH 7.4.). Receptor-bound radioactivity was quantified by liquid scintillation counting using Packard LS counter. […]

human NR1b/2B receptor = biological target: T2, human NR1b/2B receptor (Homo sapiens, UniProt Q13224); test: Human NR2B Cell Functional Assay; type: cell-based; details: statement in words in Background Art; test not named
T2 construct: expressed in transfected cells
T2 sequence (Q13224 27-1484): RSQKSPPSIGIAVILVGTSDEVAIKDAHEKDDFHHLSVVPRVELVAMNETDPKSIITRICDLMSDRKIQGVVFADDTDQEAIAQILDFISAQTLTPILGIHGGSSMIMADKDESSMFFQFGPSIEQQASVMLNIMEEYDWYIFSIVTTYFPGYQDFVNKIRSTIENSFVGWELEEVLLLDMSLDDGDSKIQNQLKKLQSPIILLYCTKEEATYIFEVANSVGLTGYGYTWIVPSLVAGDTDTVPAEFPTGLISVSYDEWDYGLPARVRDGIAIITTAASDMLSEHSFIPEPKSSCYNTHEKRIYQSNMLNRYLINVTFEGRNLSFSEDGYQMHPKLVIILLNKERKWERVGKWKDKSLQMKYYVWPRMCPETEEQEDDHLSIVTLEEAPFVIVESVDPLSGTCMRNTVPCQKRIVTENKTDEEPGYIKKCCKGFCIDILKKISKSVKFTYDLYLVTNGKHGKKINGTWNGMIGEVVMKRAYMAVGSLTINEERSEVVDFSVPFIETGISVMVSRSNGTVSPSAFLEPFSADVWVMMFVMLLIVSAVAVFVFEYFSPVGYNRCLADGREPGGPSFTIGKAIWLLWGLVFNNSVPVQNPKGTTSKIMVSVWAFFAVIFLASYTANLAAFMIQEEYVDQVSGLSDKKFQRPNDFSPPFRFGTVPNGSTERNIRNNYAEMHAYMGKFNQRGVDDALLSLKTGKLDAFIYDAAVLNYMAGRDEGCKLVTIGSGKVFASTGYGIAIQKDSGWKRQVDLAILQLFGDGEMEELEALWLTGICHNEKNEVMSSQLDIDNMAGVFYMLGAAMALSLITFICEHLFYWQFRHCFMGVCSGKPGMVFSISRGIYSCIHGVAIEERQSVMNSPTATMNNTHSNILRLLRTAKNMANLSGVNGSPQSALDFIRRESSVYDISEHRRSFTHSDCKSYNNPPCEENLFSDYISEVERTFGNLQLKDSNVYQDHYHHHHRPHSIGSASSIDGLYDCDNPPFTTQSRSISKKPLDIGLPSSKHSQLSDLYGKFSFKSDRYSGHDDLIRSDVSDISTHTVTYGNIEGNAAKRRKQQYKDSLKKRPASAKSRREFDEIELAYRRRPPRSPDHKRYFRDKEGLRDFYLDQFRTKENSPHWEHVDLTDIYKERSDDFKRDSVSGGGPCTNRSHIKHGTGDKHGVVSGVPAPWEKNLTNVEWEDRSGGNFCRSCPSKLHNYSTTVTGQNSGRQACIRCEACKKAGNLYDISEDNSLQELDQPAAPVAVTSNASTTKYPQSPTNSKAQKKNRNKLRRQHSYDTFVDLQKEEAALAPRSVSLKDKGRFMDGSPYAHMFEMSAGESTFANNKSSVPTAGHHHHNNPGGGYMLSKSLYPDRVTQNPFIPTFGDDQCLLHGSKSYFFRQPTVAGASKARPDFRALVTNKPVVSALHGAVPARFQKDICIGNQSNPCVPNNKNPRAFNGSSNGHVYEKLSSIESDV
Experimental: Human NR2B Cell Functional Assay
HEK293 cells stably expressing human NR1b/2B receptor were used for cell functional assay. Cells were grown in 75-cm^2 culture flasks, using Dulbecco's modified Eagle's medium (DMEM, high glucose) supplemented with 10% fetal bovine, 52 μg/ml Zeocin, 530 μg/ml Geneticin, 100 units/ml penicillin and 100 μg/ml streptomycin. Cells were maintained in a humidified atmosphere in 5% CO2 at 37° C., and 50-60% confluent cells were harvested by 0.05% trypsin containing 0.53 mM EDTA. The day before the experiment, expression of NR1b/2B receptor was induced by 5 μM ponasteron A in DMEM (40 ml) in the presence of 400 μM ketamine to prevent excitotoxicity. […]
Cells were washed with 10 ml of Ca^2+-free Krebs-Ringer Hepes buffer (KRH) containing 400 μM ketamine, and the loading of 5 μM fura-2 acetoxymethyl ester was made for 2 hrs at room temperature in the presence of 400 μM ketamine in Ca^2+-free KRH (10 ml). […] Fura-2 fluorescence (excitation wavelengths: 340 nm and 380 nm; emission wavelengths 510-520 nm) was monitored with a fluorescence imaging system, FDSS6000. The Δ fluorescence ratio F340/F380 (i.e., the fluorescence ratio immediately post-agonist—the basal fluorescence ratio; calculated as AUC) was used for evaluation of drug effects on agonists-induced changes in intracellular Ca^2+. The basal fluorescence ratio was determined in the presence of 10 μM MK-801.

QT prolongation = details: statement in words in Background Art; attributed to HERG inhibition

binding affinity (NR2B receptor) (NR2B receptor)	NR2B receptor antagonist activity (human NR1b/2B receptor)	melting point [°C]	SMILES	QT prolongation (QT prolongation)
–	–	198.1	O=C(CCc1ccc(Cl)cc1Cl)N[C@H]1CC[C@](O)(c2ccc(O)cn2)CC1 [Example 7, 3-(2,4-dichlorophenyl)-N-[cis-4-hydroxy-4-(5-hydroxypyridin-2-yl)cyclohexyl]propanamide]	–
–	–	195.4	O=C(CCc1ccc(F)cc1)N[C@H]1CC[C@H](c2ccc(O)cn2)CC1 [Example 12, 3-(4-fluorophenyl)-N-[trans-4-(5-hydroxypyridin-2-yl)cyclohexyl]propanamide]	–
potent	–	–	CN(CCCc1ccc(F)cc1)[C@H]1CC[C@H](c2ccc3[nH]c(=O)oc3c2)CC1 [Compound E]	shows QT prolongation

More lines, now with the values behind:

SMILES	binding affinity (NR2B receptor) (NR2B receptor)	NR2B receptor antagonist activity (human NR1b/2B receptor)	melting point [°C]	QT prolongation (QT prolongation)
O=C(CCc1ccccc1)N[C@H]1CC[C@H](c2ccc(O)cc2)CC1 [Compound A]	insufficient	–	–	–
O=C(CCc1ccccc1)N[C@H]1CO[C@H](c2ccc(O)cc2)OC1 [B]	insufficient	insufficient	–	–
